Counter-ions that a name gives are not always drawn.
Experiments:
[1] = molecular target: T1, human PDE4D (Homo sapiens, UniProt Q08499); assay: Measurement of PDE4D activity and determination of IC50 (scintillation bead assay, 3H-cAMP); format: biochemical; details: PDE4D inhibitor
T1 construct: The cloning of catalytic domains of human PDE4D as well as the expression and purification of the PDE catalytic domains; made in house
Description: The half maximal inhibitory concentration (IC50) is a measure of the effectiveness of a compound in inhibiting biological or biochemical function. Concentration-response plots are used to determine the effects of an inhibitor on an enzymatic reaction.
Measurement of phosphodiesterase activity takes advantage of the selective binding of 5-AMP or 5-GMP (and not cAMP or cGMP) to yttrium silicate beads with embedded scintillant. 0.1-1 nM PDE was incubated with 50 nM 3H-cAMP or 70 nM 3H-cGMP (Amersham, 5-60 Ci/mmol) in 50 mM Tris (pH 7.5), 8.3 mM MgCl2, 1.7 mM EGTA, and 0.01% BSA at 30 C for 30 min in 384-well assay plates. The assay was terminated by adding one-third volume of 5 mg/ml yttrium silicate beads in 18 mM ZnAcetate/ZnSO4 solution (3:1). A minimum of 30 min after mixing and centrifuging the reaction, hydrolysis was quantified by reading in a scintillation counter (Trilux, […] Wallac).

[2] = molecular target: T2, FRK (Homo sapiens, UniProt P42685); assay: Binding affinity (Kd), KinomeScan kinase binding assay; details: FRK inhibitor
T2 construct: either the full length protein or with a kinase construct that spans the catalytic domain
Text: The assay can be performed with either the full length protein or with a kinase construct that spans the catalytic domain.

[3] = test system: rats with peripheral mononeuropathy induced by loose ligation of the sciatic nerve; details: background statement; cited from earlier work
[4] = test system: rats with inflammatory pain induced by injection of an adjuvant (CFA); details: background statement on the positive control; cited from earlier work

T1 sequence (Q08499 386-715 limits assumed): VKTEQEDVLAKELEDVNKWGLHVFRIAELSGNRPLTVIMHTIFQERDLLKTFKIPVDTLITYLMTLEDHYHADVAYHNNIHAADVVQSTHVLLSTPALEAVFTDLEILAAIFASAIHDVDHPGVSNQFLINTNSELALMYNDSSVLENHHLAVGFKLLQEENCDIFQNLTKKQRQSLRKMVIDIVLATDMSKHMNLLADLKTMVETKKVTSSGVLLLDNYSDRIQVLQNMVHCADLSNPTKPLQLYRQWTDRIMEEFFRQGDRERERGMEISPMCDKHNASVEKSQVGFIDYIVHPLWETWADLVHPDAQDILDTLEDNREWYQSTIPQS
T2 sequence (P42685 whole entry, the tested form may be a part): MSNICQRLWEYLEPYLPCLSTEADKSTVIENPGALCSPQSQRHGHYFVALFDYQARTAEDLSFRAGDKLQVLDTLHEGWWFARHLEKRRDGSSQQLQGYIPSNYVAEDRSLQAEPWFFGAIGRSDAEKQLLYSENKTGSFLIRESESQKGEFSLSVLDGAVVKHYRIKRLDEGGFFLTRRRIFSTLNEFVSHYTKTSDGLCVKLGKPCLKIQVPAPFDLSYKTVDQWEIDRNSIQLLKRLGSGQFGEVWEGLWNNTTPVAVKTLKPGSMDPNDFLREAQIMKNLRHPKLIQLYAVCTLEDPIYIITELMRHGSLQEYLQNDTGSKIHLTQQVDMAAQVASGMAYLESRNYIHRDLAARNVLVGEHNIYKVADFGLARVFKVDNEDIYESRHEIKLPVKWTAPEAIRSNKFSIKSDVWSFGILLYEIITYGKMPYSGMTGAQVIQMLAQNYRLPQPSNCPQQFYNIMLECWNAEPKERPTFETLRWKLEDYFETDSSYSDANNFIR

| Compound | IC50 [1] [nM] | other results |
| --- | --- | --- |
| CCCOc1cc([C@]2(C)CNC(=O)O2)ccc1OC [Daxalipram] | 1100 | – |
| Cc1c[n+]([O-])ccc1CC(c1ccc(C(O)(C(F)(F)F)C(F)(F)F)cc1)c1ccc(OC(F)F)c(OC(F)F)c1 [L-826,141, 4-[2-[3,4-Bis(difluoromethoxy)phenyl]-2-[4-[2,2,2-trifluoro-1-hydroxy-1-(trifluoro-methyl)ethyl]phenyl]ethyl]-3-methylpyridine N-oxide] | 2.4 | – |
| CCOc1cc2ncc(C#N)c(Nc3ccc(F)c(Cl)c3)c2cc1NC(=O)/C=C/CN(C)C [Pelitinib] | – | Kd [2]: 190 nM |
| COc1ccc(/C(C)=N/OC(N)=O)cc1OC1CCCC1 [Filaminast] | 1000 | – |
| CC(C)C[C@H](CN)CC(=O)O [Pregabalin] | – | ameliorating symptoms of pain in the CCl model [3]: effective at ameliorating symptoms of pain |
| CCOc1ccc(-c2nc(-c3cccc(C(=O)O)n3)cs2)cc1OCC [Tetomilast, 6-[2-(3,4-diethoxyphenyl)-1,3-thiazol-4-yl]pyridine-2-carboxylic acid] | 70 | – |
| O=C(Nc1c(Cl)cncc1Cl)C(=O)c1cn(Cc2ccc(F)cc2)c2ncccc12 [Ronomilast] | 3.5 | – |
| O=C(Nc1c(Cl)c[n+]([O-])cc1Cl)c1ccc(OC(F)F)c2oc3ccncc3c12 [Revamilast] | 2.7 | – |
| CCC1C(C)=NN=C(c2ccc(OC)c(OC)c2)c2cc(OC)c(OC)cc21 (centres unmarked) [Tofisopam, 1-(3,4-dimethoxyphenyl)-5-ethyl-7,8-dimethoxy-4-methyl-5H-2,3-benzodiazepine] | 900 | – |
| COc1ccc2c(c1)c(CC(=O)O)c(C)n2C(=O)c1ccc(Cl)cc1 [indomethacin] | – | efficacy in the CFA model [4]: demonstrated efficacy |
| CCNc1ncn(Cc2ccc(OC)c(OC3CCCC3)c2)c2nc(C(C)C)nc1-2 [V11294, -[(3-cyclopentyloxy-4-methoxyphenyl)methyl]-N-ethyl-8-propan-2-ylpurin-6-amine:] | 200 | – |
| CS(=O)(=O)Nc1ccc2oc3c(OC(F)F)ccc(C(=O)Nc4c(Cl)cncc4Cl)c3c2c1 [oglemilast] | 166 | – |
| COc1ccc([C@H](Cc2ccncc2)c2ccccc2)cc1OC1CCCC1 [CDP-840, 4-[(2R)-2-[3-(Cyclopentyloxy)-4-methoxyphenyl]-2-phenylethyl]-pyridine hydrochloride] | 2.1 | – |
| Tolafentrine | 30 | – |

— US20130252924A1, “Compounds and Methods for Treating Pain” (AKRON MOLECULES GMBH, priority 2010, published 2013)
